Consider six compounds from patent publication US20220213119A1, “THIENOHETEROCYCLIC DERIVATIVE, PREPARATION METHOD THEREFOR AND MEDICAL USE THEREOF” (Jiangsu Hengrui Medicine Ca, Lid., priority 2019, published 2022).

The structures appear in SMILES notation.

One data set deals with T1, ERK1 (Homo sapiens, UniProt P27361).
T1 construct: purchased R&D 1879-KS-010
The experiment in a line: ERK1 enzyme activity test (ADP-Glo Kinase Assay). The conditions noted are these: chemiluminescence. Type of data set: biochemical. Here is the method: (§1) The purpose of this experiment is to detect the inhibitory ability of the compounds on the ERK1 enzyme activity and evaluate the activity of the compounds in vitro according to IC50. The ADP-Glo™ Kinase Assay Kit was used in this experiment. Under the action of enzyme, the substrate was phosphorylated and ADP was produced at the same time. The ADP-Glo Reagent was added to remove unreacted ATP in the reaction system. The kinase detection reagent was used to detect the ADP produced by the reaction. In the presence of the compound, the inhibition rate of the compound was calculated by measuring the signal value.
Enzyme and substrate preparation: ERK1 (1879-KS-010, R&D) and substrate (AS-61777, anaspec) were prepared to be 0.75 ng/μl and 100 μM respectively in the buffer. The enzyme solution and substrate solution were then prepared into a mixed solution at a volume ratio of 2:1 for later use. ATP was diluted to 300 μM with the buffer. The compounds were dissolved in DMSO (dimethyl sulfoxide, Shanghai Titan Scientific Co., Ltd.) to prepare a stock solution with an initial concentration of 20 mM, and then Bravo was used to prepare solutions of the compounds. Finally, a 3 μL of a mixed solution of enzyme and substrate, and 1 μL of different concentrations of the compound (the initial concentration is 50 μM, 4-fold dilution) were added to each well of the 384-well plate, and the plate was incubated at 30° C. for 10 minutes, and finally 1 μL of 300 μM ATP solution was added to each well, and the plate was incubated at 30° C. for 2 hours. Then 5 μL of ADP-Glo was added, and the plate was incubated at 30° C. for 40 minutes. Then 10 μL of Kinase detection buffer was added, and the plate was incubated at 30° C. for 40 minutes. The 384-well plate was taken out and placed in a microplate reader (BMG labtech, PHERAstar FS), and the chemiluminescence was measured by the microplate reader.
(§2) The data were processed and analyzed with Microsoft Excel, Graphpad Prism 5.

Data set [1] in a line: Pharmacokinetics assay in mice. It counts as in vivo. The conditions noted are these: mouse, po, C57 mice (female), intragastric, 2 mg/kg, plasma; for Vd/F: read-out: Apparent distribution volume Vz/F; for AUC: read-out: Area under curve AUC; for CL/F: read-out: Clearance CLz/F; for half-life: read-out: Half Life T1/2 (converted); for Cmax: read-out: Plasma Concentration Cmax; for MRT: read-out: Residence Time MRT. Here is the method: Mice were used as the test animal. The drug concentration in plasma at different time points was determined by LC/MS/MS method after administration of compound 3-P2, compound 4-P2, compound 9-P2, compound 10-P2, compound 12 and compound 15. The pharmacokinetic behavior of the compounds of the present disclosure in mice was studied, and the pharmacokinetic characteristics were evaluated.
54 of C57 mice (female) were equally divided into 6 groups, which were purchased from Shanghai Jiesijie Laboratory Animal Co., Ltd., with the animal production license number: SOCK (Shanghai) 2013-0006.
A certain amount of compound was weighted, followed by the addition of 5% volume of DMSO and 5% Tween 80 to dissolve it, then followed by the addition of 90% normal saline to prepare a colorless and clear solution of 0.1 mg/mL.
After an overnight fast, C57 mice were intragastrically administered the test compound at an administration dose of 2 mg/kg and an administration volume of 0.2 ml/10 g.
The mice were intragastrically administered the test compounds. 0.1mL of blood was taken before the administration and at 0.25, 0.5, 1.0, 2.0, 4.0, 6.0, 8.0, 11.0, 24.0 hours after the administration. The blood was placed in a heparinized test tube, and centrifuged at 3500 rpm for 10 minutes. The plasma was separated and stored at −20° C.
The content of the test compound in the plasma of mice after […] administration of the test compound at different concentrations was determined: 25 μl of mouse plasma at each time point after the administration was taken, followed by the addition of 50 μl of the internal standard camptothecin solution (100 ng/mL) and 200 μl of acetonitrile. The resulting solution was vortex-mixed for 5 minutes, and centrifuged for 10 minutes (4000 rpm). 4μl of the supernatant was taken from the plasma samples for LC/MS/MS analysis.

For another data set, the system named is Colo205 cells. Description: In vitro proliferation inhibition test on Colo205 tumor cells (CellTiter-Glo). It counts as cell-based. The conditions noted are these: Homo sapiens, COLO 205, 72 h; Colo205 cell proliferation, 3 days of culture, CTG. The method, then:
The purpose of this experiment is to test the inhibitory activity of the compounds on the proliferation of Colo205 cells (CCL-222, ATCC) in vitro. The cells were treated with different concentrations of compounds in vitro. After 3 days of culture, the cell proliferation was detected using CTG (CellTiter-Glo® Luminescent Cell Viability Assay, Promega, catalog number: G7573) reagent. The in vitro activity of the compounds was evaluated according to the IC50 value.
In the following, taking the in vitro proliferation inhibition test method of Colo205 cells as an example, the method in the present disclosure for testing the in vitro proliferation inhibitory activity of the compounds of the present disclosure is described. This method is also applicable to, but not limited to, the in vitro proliferation inhibitory activity test on other tumor cells.
Colo205 cells were digested, centrifuged and then resuspended. The single cell suspension was mixed well, and the density of viable cells was adjusted to 5.0×10^4 cells/ml with cell culture medium (RPMI1640+2% FBS), and 95 μl/well was added to a 96-well cell culture plate. Only 100 μl medium was added to the peripheral wells of the 96-well plate. The culture plate was incubated in an incubator for 24 hours (37° C., 5% CO2).
The compound was dissolved in DMSO (dimethyl sulfoxide, Shanghai Titan Scientific Co., Ltd.) and prepared into a stock solution with an initial concentration of 20 mM. The initial concentration of the small molecule compound is 2 mM, and then 4-fold diluted into to 9 points, and the tenth point is DMSO. Another 96-well plate was taken, 90 μl of cell culture medium (RPMI1640+2% FBS) was added to each well, then 10 μl of different concentrations of the test sample was added to each well, the mixture was mixed well, and then 5 μl of different concentrations of the test sample was added to the cell culture plate, and each sample has two duplicate holes. The culture plate was incubated in the incubator for 3 days (37° C., 5% CO2). The 96-well cell culture plate was taken out, 50 μl CTG solution was added to each well, and the plate was incubated for 10 minutes at room temperature. In a microplate reader (BMG labtech, PHERAstar FS), chemiluminescence was measured with the microplate reader.
as §2

A further data set addresses T2, ERK2 (Homo sapiens, UniProt P28482).
T2 construct: purchased R&D 1230-KS-010
Description: ERK2 enzyme activity test (ADP-Glo Kinase Assay). Type of data set: biochemical. The conditions noted are these: chemiluminescence. Here is the method: as §1, with “ERK2” for “ERK1”
Enzyme and substrate preparation: ERK2 (1230-KS-010, R&D) and substrate (Custom peptides, Gill Biochemical) were prepared to be 0.75 ng/μl and 1500 μM in the buffer (40 mM Tris, 20 mM MgCl2, 0.1 mg/mL BSA, 50 μM DTT). The enzyme solution and substrate solution were then prepared into a mixed solution at a volume ratio of 2:1 for later use. ATP was diluted to 500 μM with the buffer. The compounds were dissolved in DMSO (dimethyl sulfoxide, Shanghai Titan Scientific Co., Ltd.) to prepare a stock solution with an initial concentration of 20 mM, and then Bravo was used to prepare solutions of the compounds. Finally, a 3 μL of a mixed solution of enzyme and substrate, and 1 μL of different concentrations of the compound (the initial concentration is 50 μM, 4-fold dilution) were added to each well of the 384-well plate, and the plate was incubated at 30° C. for 10 minutes, and finally 1 μL of 500 μM ATP solution was added to each well, and the plate was incubated at 30° C. for 2 hours. Then 5 μL of ADP-Glo was added, and the plate was incubated at 30° C. for 40 minutes. Then 10 μL of Kinase detection buffer was added, and the plate was incubated at 30° C. for 40 minutes. The 384-well plate was taken out and placed in a microplate reader (BMG labtech, PHERAstar FS), and the chemiluminescence was measured by the microplate reader.
as §2

T1 sequence (P27361 whole entry): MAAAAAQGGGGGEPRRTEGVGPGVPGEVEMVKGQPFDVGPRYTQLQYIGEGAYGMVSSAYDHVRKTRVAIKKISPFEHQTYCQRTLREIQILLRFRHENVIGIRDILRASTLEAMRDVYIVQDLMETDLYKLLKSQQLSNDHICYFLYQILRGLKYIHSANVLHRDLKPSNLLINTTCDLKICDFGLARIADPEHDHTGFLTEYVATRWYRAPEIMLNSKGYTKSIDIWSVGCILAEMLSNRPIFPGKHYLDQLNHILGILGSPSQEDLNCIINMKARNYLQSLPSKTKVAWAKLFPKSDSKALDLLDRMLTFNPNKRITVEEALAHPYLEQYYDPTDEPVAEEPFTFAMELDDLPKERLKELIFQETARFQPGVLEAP
T2 sequence (P28482 whole entry): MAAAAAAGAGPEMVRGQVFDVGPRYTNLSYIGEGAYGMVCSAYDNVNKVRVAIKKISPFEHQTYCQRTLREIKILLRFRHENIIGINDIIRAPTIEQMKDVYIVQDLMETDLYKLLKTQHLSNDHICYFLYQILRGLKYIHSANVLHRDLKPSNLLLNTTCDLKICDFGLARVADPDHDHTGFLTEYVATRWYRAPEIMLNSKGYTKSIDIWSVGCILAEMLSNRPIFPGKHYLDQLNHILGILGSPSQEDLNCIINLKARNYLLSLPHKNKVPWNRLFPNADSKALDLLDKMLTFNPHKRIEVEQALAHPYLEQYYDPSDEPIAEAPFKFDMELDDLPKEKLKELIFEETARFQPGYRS

Regarding `COc1cc(F)cc([C@@H](CO)NC(=O)[C@@H](C)N2CCc3sc(-c4nc(NC5CCOCC5)ncc4Cl)cc3C2=O)c1` [Example 9-P2, (R)-2-(2-(5-Chloro-2-((tetrahydro-2H-pyran-4-yl)amino)pyrimidin-4-yl)-4-oxo-6,7-dihydrothieno[3,2-c]pyridin-5(4H)-yl)-N-((S)-1-(3-fluoro-5-methoxyphenyl)-2-hydroxyethyl)prop ionamide], the IC50 against ERK1 is 19 nM. For the same compound, in data set [1], the Vd/F was determined as 7.14 L/kg, the exposure (AUC) is 1820 ng·h/mL, the CL/F was determined as 18.4 mL/min/kg and the half-life was 4.49 h. In addition, in data set [1], the Cmax stood at 1480 ng/mL and the MRT is 1.85 h. This compound also registered a half-maximal inhibitory concentration (IC50) in the data set on Colo205 cells of 18 nM. It took 3 nM to reach half-maximal inhibition against ERK2 (IC50).
Take `COc1cc(F)cc([C@@H](CO)NC(=O)[C@@H](C)N2CCc3sc(-c4nc(Nc5ccnn5C)ncc4C)cc3C2=O)c1` [Example 10-P2, (R)-N-((S)-1-(3-Fluoro-5-methoxyphenyl)-2-hydroxyethyl)-2-(2-(5-methyl-2-((1-methyl-1 H-pyrazol-5-yl)amino)pyrimidin-4-yl)-4-oxo-6,7-dihydrothieno[3,2-c]pyridin-5(4H)-yl)pro pionamide]: the IC50 at ERK1 was determined as 32 nM. Further, in data set [1], the Vd/F came out at 1.99 L/kg, the AUC is 1830 ng·h/mL, the CL/F came out at 18.2 mL/min/kg and the half-life is 1.26 h. In data set [1], the Cmax was determined as 1000 ng/mL and the MRT came out at 1.64 h. For the same compound, in the data set with Colo205 cells, 50 nM corresponded to half-maximal inhibition (IC50). Further, at ERK2, it took 5 nM to reach half-maximal inhibition (IC50).
As for `COc1cc(F)cc([C@@H](CO)NC(=O)[C@@H](C)N2CCc3sc(-c4ccnc(NC5CCOCC5)n4)cc3C2=O)c1` [Example 11, (R)-N-((S)-1-(3-Fluoro-5-methoxyphenyl)-2-hydroxyethyl)-2-(4-oxo-2-(2-((tetrahydro-2H-pyran-4-yl)amino)pyrimidin-4-yl)-6,7-dihydrothieno[3,2-c]pyridin-5(4H)-yl)-propionamide], the IC50 against ERK1 is 5 nM; in the data set with Colo205 cells, 16 nM; at ERK2, 2 nM.
As to `COc1cc(F)cc([C@@H](CO)NC(=O)[C@@H](C)N2CCc3sc(-c4nc(Nc5ccnn5C)ncc4Cl)cc3C2=O)c1` [Example 14, (R)-2-(2-(5-Chloro-2-((1-methyl-1H-pyrazol-5-yl)amino)pyrimidin-4-yl)-4-oxo-6,7-dihydrothieno[3,2-c]pyridin-5(4H)-yl)-N-((S)-1-(3-fluoro-5-methoxyphenyl)-2-hydroxyethyl)prop ionamide], the IC50 is 27 nM against ERK1, 14 nM in the data set on Colo205 cells and 6 nM against ERK2.
As to `COc1cc(F)cc([C@@H](CO)NC(=O)[C@@H](C)N2CCc3sc(-c4nc(NC5CCOCC5)ncc4C)cc3C2=O)c1` [Example 16, (R)-N-((S)-1-(3-Fluoro-5-methoxyphenyl)-2-hydroxyethyl)-2-(2-(5-methyl-2-((tetrahydro-2 H-pyran-4-yl)amino)pyrimidin-4-yl)-4-oxo-6,7-dihydrothieno[3,2-c]pyridin-5-(4H)-yl)prop ionamide], the IC50 on ERK1 was 3 nM; against ERK2, 1 nM.
With `COc1cc(F)cc([C@@H](CO)NC(=O)[C@@H](C)N2CCc3sc(-c4nc(N[C@@H](C)CO)ncc4C)cc3C2=O)c1` [Example 17, (R)-N-((S)-1-(3-Fluoro-5-methoxyphenyl)-2-hydroxyethyl)-2-(2-(2-(((S)-1-hydroxypropan-2-yl)amino)-5-methylpyrimidin-4-yl)-4-oxo-6,7-dihydrothieno[3,2-c]pyridin-5(4H)-yl)prop ionamide], the IC50 is 12 nM at ERK1, 17 nM with Colo205 cells and 2 nM against ERK2.
